Patent US20200268847A1, “Methods of Treating Newly Diagnosed Multiple Myeloma with a Combination of An Antibody that Specifically Binds CD38, Lenalidomide and Dexamethasone” (Janssen Biotech, Inc., priority 2019, published 2020)

Legend:
[1] = system: newly diagnosed multiple myeloma, patients ineligible for HDC and ASCT; experiment: Phase 3 MAIA study (NCT02252172), interim analysis: progression-free survival, response by IMWG criteria, survival; assay type: in vivo, human
Protocol: Subject participation will include a Screening Phase, a Treatment Phase, and a Follow-up Phase. The Screening Phase will be up to 21 days before Cycle 1, Day 1. The Treatment Phase will extend from Day 1 of Cycle 1 until discontinuation of all study treatment. […] This will equate to […] of dosing at the start of the study and a total of 23 doses in the first year. Lenalidomide will be administered at a dose of 25 mg orally (PO) on Days 1 through 21 of each 28-day cycle, and dexamethasone will be administered at a dose of 40 mg once a week. Subjects in both treatment arms will continue lenalidomide and dexamethasone until disease progression or unacceptable toxicity. […] Randomization will be stratified by International Staging System (I vs II vs III), region (North America vs Other), and age (<75 vs >75), using an equal allocation ratio of 1:1.
The primary endpoint is PFS, which is defined as the duration from the date of randomization to either progressive disease, or death, whichever occurs first. Disease progression will be determined according to the IMWG criteria.
The secondary efficacy endpoints include: • Time to disease progression (TTP) is defined as the time from the date of randomization to the date of first documented evidence of PD, as defined in the IMWG criteria. […] Disease progression will be based on investigator judgment. For those subjects who are still alive and not yet progressed on the next line of treatment, they will be censored on the last date of follow-up. • Overall survival (OS), measured from the date of randomization to the date of the subject's death. […] For subjects without response, data will be censored either at the date of progressive disease or, in the absence of progressive disease, at the last disease evaluation before the start of subsequent anti-myeloma therapy. • Duration of response, calculated from the date of initial documentation of a response (PR or better) to the date of first documented evidence of progressive disease, as defined in the IMWG criteria. For subjects who have not progressed, data will be censored at the last disease evaluation before the start of any subsequent anti-myeloma therapy. • To evaluate clinical efficacy of DRd in high risk molecular subgroups compared to Rd alone. • To evaluate the impact of DRd compared to Rd on patient-reported perception of global health.
Disease evaluations will be performed by a central laboratory (unless otherwise specified). This study will use the IMWG consensus recommendations for multiple myeloma treatment response criteria (Durie et al., Leukemia, 20:[…], 2006, Rajkumar et al., Blood, 117:4691-4695, 2011) presented in Table 1. For quantitative immunoglobulin, M-protein, and immunofixation measurements in serum and 24 hour urine, the investigator will use results provided by the central laboratory.
The primary endpoint was progression-free survival. The study protocol is described in Example 1.
Patients were stratified by International Staging System (ISS; I vs. II vs. III), region (North America vs. Other), and age (<75 years vs. >75 years).
During each 28-day cycle, all patients received oral lenalidomide (25 mg, Days 1-21) and oral dexamethasone (40 mg, Days 1, 8, 15, and 22) until disease progression or unacceptable toxicity. For patients older than 75 years of age or with body mass index less than 18.5 kg/m^2, dexamethasone was administered at a dose of 20 mg once weekly. […] Pre-infusion medications were administered to manage infusion reactions.
The primary endpoint was progression-free survival (time from date of randomization to either disease progression or death).

[2] = system: minimal residual disease (clonal multiple myeloma cells in bone marrow); experiment: MAIA: minimal residual disease in bone marrow aspirates by next-generation sequencing (clonoSEQ version 2.0); assay type: in vivo, human; conditions: threshold 1 tumor cell per 10^5 white cells
Excerpt: MRD status may be assessed from bone marrow aspirate samples using for example next generation sequencing (NGS) of immunoglobulin heavy and light chains. The updated, analytically validated version of the clonoSEQ® Assay (Version 2) by Adaptive Biotechnologies may be used for the detection, quantification and analysis of MRD.
A central laboratory performed disease evaluations (serum and 24-hour urine samples) every 28 days for 2 years, and then every 8 weeks until disease progression. For patients with positive serum immunofixation and daratumumab (DARZALEX®) interference, complete responses were confirmed using reflex assays (McCudden et al., Clin Chem Lab Med 54:1095-1104, 2016). Minimal residual disease was evaluated by next-generation sequencing assays (clonoSEQ® version 2.0; Adaptive Biotechnologies) on bone marrow aspirates collected at baseline, at time of suspected complete or stringent complete response (undetectable M-protein on two consecutive serum and urine electrophoresis tests), and at 12, 18, 24, and 30 months post-first dose in patients who achieved a complete response or better.

[3] = ITT population, median follow-up 28.0 months

## daratumumab (DARZALEX®) group: daratumumab (DARZALEX®) in combination with lenalidomide and dexamethasone
[1]; 155 events in total
  events of progression or death while receiving the next line of therapy: 68 patients
[1]; 179 events in total
  patients with disease progression events (time-to-event analysis of disease progression): 17.9%
[1]; DRd vs Rd, primary analysis of MAIA
  reduction of the risk of progression or death: 44%
[1]; ITT population
  Kaplan-Meier estimate of the 30-month rate of progression-free survival: 70.6%
  median time to progression: not being reached
[1]; ITT population (N = 368 vs 369), median follow-up 28.0 months
  Overall response: No. with response: 342
[1]; ITT population, long-term follow-up ongoing
  median overall survival: not reached
[1]; ITT population, median follow-up 28 months
  median progression-free survival: not reached
[1]; [3]
  Best overall response: Complete response: 63 (17.1) no. (%)
  Best overall response: Complete response or better: 175 (47.6) no. (%)
  Best overall response: Partial response: 50 (13.6) no. (%)
  Best overall response: Progressive disease: 1 (0.3) no. (%)
  Best overall response: Response could not be evaluated: 14 (3.8) no. (%)
  Best overall response: Stringent complete response: 112 (30.4) no. (%)
  Best overall response: Very good partial response: 117 (31.8) no. (%)
  Best overall response: Very good partial response or better: 292 (79.3) no. (%)
  Overall response rate: 92.9%
[1]; ITT population, P<0.0001
  rate of complete response or better: 47.6%
  rate of very good partial response or better: 79.3%
[1]; at clinical cutoff date Sep. 24, 2018
  treatment discontinued due to progressive disease: 14.6%
[1]; in vivo
  36-month rate of progression-free survival 2: 77.1%
  median duration of response: not reached
  median time to complete response or better: 10.4 months
  median time to first response among responders: 1.05 months
[1]; median follow-up 28.0 months, 240 events in total
  patients with events of disease progression or death: 26.4%
[1]; number of deaths, 138 in total, median follow-up 28.0 months
  deaths: 62
[1]; progression on next line of therapy or death
  median progression-free survival 2: not reached
[2]; ITT population
  Negative status for minimal residual disease: 89 (24.2) no. (%)
[2]
  negative status for minimal residual disease, times as high as in the control group: more than 3 times
[2]; ITT, P<0.0001
  patients minimal residual disease-negative: 24.2%
